From patent publication US10077284B2, “UBA5 inhibitors” (THE GOVERNING COUNCIL OF THE UNIVERSITY OF TORONTO, priority 2014, dated 2018)
Values joined by “and” are separate entries in the source; they are usually repeats but may differ in a detail not shown here. Equal values may be shown once. Read-outs that look alike come from different tables or passages of the source.

Columns and labels:
[1] = tested on: NEDD8 downstream protein labeling in A549 cells; settings: A549, increasing concentrations
Method: (§1) Cells were washed twice with cold PBS and protein extracts were prepared using RIPA buffer with a protease and phosphatase inhibitor cocktail (Roche #11836153001, #04906845001). Protein concentrations were determined using the BCA protein quantification technique (BCA Protein assay kit, Pierce). In each assay, 30 μg of whole cell protein extract was resolved on a 10% SDS-polyacrylamide gel and transferred to a PVDF membrane (Bio-Rad). The membranes were blocked with SuperBlock (Thermo scientific; No. 37515) for at least 1 hr followed by an overnight incubation in primary antibody. Blots were probed with antibodies against UBA5 (abcam; ab109227) and UFM-1 (abcam; ab09305) in a 1:1000 dilution, and anti-β-actin (1:5000 dilution; Cell Signaling, 3700S) was used as a loading control. Fluorescent labeled secondary antibodies anti-rabbit Alexa Fluor® 647 Conjugate (red, 1:5000) and anti-mouse Alexa Fluor® 488 Conjugate (green, 1:20,000) were used to detect bands (Cell Signaling; 4414S and 4408S, respectively). The bands were visualized and analyzed using Image lab software (Bio-Rad).
(§2) Bands were visualized using anti-rabbit Alexa Fluor® 647 (1:5000, for NEDD8 and NEDD8 conjugates) and anti-mouse Alexa Fluor® 488 (1:20,000, for actin) secondary antibodies.

[2] = tested on: NEDD8 downstream protein labeling in Sk-Luci6 cells; settings: Sk-Luci6, increasing concentrations
Method: as §1, §2

[3] = biological target: T1, NEDD8 activating enzyme (NAE) (Homo sapiens, UniProt Q8TBC4); test: NAE transthiolation assay (NEDD8 transfer to UbcH12); type: biochemical
T1 construct: purchased Boston Biochem
T1 sequence (Q8TBC4 1-463): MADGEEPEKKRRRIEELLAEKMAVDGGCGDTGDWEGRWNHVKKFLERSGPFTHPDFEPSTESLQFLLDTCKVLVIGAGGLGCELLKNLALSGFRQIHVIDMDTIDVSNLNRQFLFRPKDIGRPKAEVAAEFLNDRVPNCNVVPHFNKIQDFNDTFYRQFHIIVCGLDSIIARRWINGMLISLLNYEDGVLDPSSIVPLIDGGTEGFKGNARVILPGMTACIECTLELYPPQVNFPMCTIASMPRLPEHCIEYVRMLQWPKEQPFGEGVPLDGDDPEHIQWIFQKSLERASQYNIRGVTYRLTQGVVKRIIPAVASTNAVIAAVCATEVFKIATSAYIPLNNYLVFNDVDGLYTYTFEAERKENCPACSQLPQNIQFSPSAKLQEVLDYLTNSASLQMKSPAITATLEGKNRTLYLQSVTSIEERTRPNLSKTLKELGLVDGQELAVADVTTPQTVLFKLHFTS
T1 sequence (Q13564 1-534 partner): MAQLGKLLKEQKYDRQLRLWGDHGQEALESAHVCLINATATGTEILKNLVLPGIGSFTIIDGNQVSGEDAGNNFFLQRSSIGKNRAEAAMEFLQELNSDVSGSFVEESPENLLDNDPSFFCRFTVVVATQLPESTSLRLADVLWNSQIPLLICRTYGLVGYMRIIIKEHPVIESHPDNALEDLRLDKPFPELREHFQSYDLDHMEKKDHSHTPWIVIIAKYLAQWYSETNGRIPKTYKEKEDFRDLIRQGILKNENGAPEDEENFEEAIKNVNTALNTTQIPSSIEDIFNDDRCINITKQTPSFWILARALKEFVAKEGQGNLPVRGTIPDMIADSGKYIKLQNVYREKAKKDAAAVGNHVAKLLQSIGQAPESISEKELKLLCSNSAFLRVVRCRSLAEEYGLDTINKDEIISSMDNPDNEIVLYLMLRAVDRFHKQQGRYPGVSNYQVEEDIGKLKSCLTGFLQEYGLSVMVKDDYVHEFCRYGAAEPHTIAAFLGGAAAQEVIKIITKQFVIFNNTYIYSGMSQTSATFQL
Method: (§4) Initial rates were recorded over 30 second time intervals from 0 to 2.5 min (normal kinetics) or 0 to 5 min (inhibition kinetics). Reactions were initiated by the addition of ATP and stopped using 4× Laemmli sample buffer (BioRad). The generated protein conjugates were separated on a 10% non-degenerating SDS-polyacrylamide gel (4-15% gels were used for the UAE transthiolaton assay), followed by Western blot analysis, with the exception of GST-UBA5 where protein bands were detected using Coomassie™ Brilliant Blue R-250 staining or Stain-Free gel imaging for the enzymatic assays (Bio-Rad). Transfers for the UAE and NAE immunoblots were performed using nitrocellulose membranes and blocking and blotting was performed as described above with cellular protein extracts. The His6-tagged Ub-UBCH6 complex was detected using an anti-His mouse monoclonal primary antibody (1:500, abcam). A rabbit anti-NEDD8 polyclonal primary antibody (1:500, BostonBiochem) was used for the detection of the E2-NEDD8 complexes. […] Inhibitory data was fit to a dose-response curve (Y=Bottom+(Top−Bottom)/(1+10^(X-Log IC50))) using GraphPad Prism 6.

[4] = biological target: UBA5 (Homo sapiens, UniProt Q9GZZ9); settings: in the presence of 1.5.Zn (5 μM)
Method: Initial rates were recorded over 30 second time intervals from 0 to 2.5 min (normal kinetics) or 0 to 5 min (inhibition kinetics). Reactions were initiated by the addition of ATP and stopped using 4× Laemmli sample buffer (BioRad). The generated protein conjugates were separated on a 10% […] SDS-polyacrylamide gel (4-15% gels were used for the UAE transthiolaton assay), followed by Western blot analysis, with the exception of GST-UBA5 where protein bands were detected using Coomassie™ Brilliant Blue R-250 staining or Stain-Free gel imaging for the enzymatic assays (Bio-Rad). Transfers for the UAE and NAE immunoblots were performed using nitrocellulose membranes and blocking and blotting was performed as described above with cellular protein extracts. The His6-tagged Ub-UBCH6 complex was detected using an anti-His mouse monoclonal primary antibody (1:500, abcam). A rabbit anti-NEDD8 polyclonal primary antibody (1:500, BostonBiochem) was used for the detection of the E2-NEDD8 complexes. […] Inhibitory data was fit to a dose-response curve (Y=Bottom+(Top−Bottom)/(1+10^(X-Log IC50))) using GraphPad Prism 6.
Concentrations of UBA5 (1 μM), UFM1 (10 μM), and UFC1 (10 μM) were held constant, while the concentration of ATP was varied from 0 to 1 mM. […] Protein concentrations were held constant as in (A), and concentrations of ATP were varied from 0 to 1 mM (n=3). […]

[5] = tested on: UFM1 conjugation in K562 cells; settings: K562, increasing concentrations, 72 h
Method: as §1, with “Fluorescent labeled secondary antibodies anti-rabbit Alexa Fluor® 647 Conjugate (red, 1:5000) and anti-mouse Alexa Fluor® 488 Conjugate (green, 1:20,000) were used to detect bands (Cell Signaling; 4414S and 4408S, respectively).” left out
(§3) The intracellular inhibition of UBA5 was evaluated in order to investigate its use as a molecular tool to study cellular UFMylation by UBA5 inactivation. […] The graphical representation of the intracellular inhibition of UFM1 protein conjugation (evaluated using Western Blot analysis, described in detail within the Materials and Methods submitted in May 2014) is shown in FIG. 26. […]

[6] = tested on: UFM1 conjugation in Sk-Luci6 cells; settings: Sk-Luci6, increasing concentrations, 72 h
Method: as §1, with “Fluorescent labeled secondary antibodies anti-rabbit Alexa Fluor® 647 Conjugate (red, 1:5000) and anti-mouse Alexa Fluor® 488 Conjugate (green, 1:20,000) were used to detect bands (Cell Signaling; 4414S and 4408S, respectively).” left out
as §3

[7] = biological target: T2, GST-UBA5 (Homo sapiens, UniProt Q9GZZ9); test: UBA5 transthiolation assay (UFC1-UFM1 conjugate formation); type: biochemical
T2 construct: made in house
Method: as §4

[8] = tested on: Sk-Luci6, A549 and MRC-9 cells; settings: all treated cells
Description: Confluence of live cells was estimated visually under phase contrast microscopy.
Sk-Luci6, A549 and MRC-9 were each plated as 5×10^3 cells per well and grown in 10% serum on a 96 well plate. […] Cell numbers were obtained at 24 hr time points over a period of 72 hrs using trypan blue exclusion assay (BioRad; #145-0021) and counted using a hemocytometer.

T2 sequence (Q9GZZ9 whole entry): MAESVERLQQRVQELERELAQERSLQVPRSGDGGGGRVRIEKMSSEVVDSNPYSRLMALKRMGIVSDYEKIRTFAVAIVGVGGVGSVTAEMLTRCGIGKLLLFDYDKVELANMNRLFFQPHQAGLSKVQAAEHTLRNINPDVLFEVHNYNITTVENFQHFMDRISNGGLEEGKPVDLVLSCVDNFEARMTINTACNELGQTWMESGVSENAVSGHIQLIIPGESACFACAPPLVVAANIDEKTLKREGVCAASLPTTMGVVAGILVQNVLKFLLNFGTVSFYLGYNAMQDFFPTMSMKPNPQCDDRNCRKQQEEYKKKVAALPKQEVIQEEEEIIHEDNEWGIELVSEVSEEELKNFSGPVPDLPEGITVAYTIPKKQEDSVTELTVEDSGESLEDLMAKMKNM
UBA5, sequence (Q9GZZ9 whole entry): as above

## Nc1ncnc2c1ncn2[C@@H]1O[C@H](C(=O)NCCCCCC(=O)N2CCNCCNCCNCC2)[C@@H](O)[C@H]1O.O=S(=O)([O-])C(F)(F)F.O=S(=O)([O-])C(F)(F)F.[Zn+2] [Compound 1.5.Zn, (2S,3S,4R,5R)—N-(6-(1,4,7,10-tetraazacyclododecan-1-yl)-6-oxohexyl)-5-(6-amino-9H-purin-9-yl)-3,4-dihydroxytetrahydrofuran-2-carboxamide zinc trifluoromethanesulfonate]
[1]
  intracellular NAE inhibition (NEDD8 labeling): no intracellular NAE inhibition
[2]
  intracellular NAE inhibition (NEDD8 labeling): no intracellular NAE inhibition
[3]; n=3-6
  IC50: 103 µM and 66.8 µM
[3]; ratio of IC50
  selectivity for UBA5 over NAE: > 20 fold and ~20 fold
[4]
  VMAX: 0.988 ± 0.137 pmol/min
  kCAT: 0.113 ± 0.016 min⁻¹
[5]
  UFMylation levels: Decreased UFMylation levels
[6]
  UFMylation levels: Decreased UFMylation levels
[7]; Table 1, transthiolation enzymatic assay, read-out: IC50
  IC50: 4 µM
[7]; Table 5, n = 3, read-out: IC50
  IC50: 4 µM
[7]; comparison between series
  relative inhibitor activity against UBA5: most potent zinc-coordinated complex
[7]; read-out: IC50, inhibition of UFC1-UFM1 conjugate formation
  IC50: 4.1 µM and 4 µM
[8]
  cell death: no cell death
